What was measured:
Format in all cases: cell-based, human
[1] = test system: Staufen1; assay: Western blot of Staufen1 in SH-SY5Y and ATXN2-Q22/58 knock-in cells; settings: ATXN2-Q22/58 KI cells, RNAi
Method: (§1) SH-SY5Y cells were cultured in standard DMEM with 10% FBS and 1X penicillin/streptomycin in 5% CO2. Transfection of STAU1 siRNA or STAU1 ASO was accomplished using Lipofectamine transfection reagent using standard conditions. Cells were harvested 3-5 days post transfection.
(§2) Protein extracts were prepared by suspending cell pellets in SDS-PAGE sample buffer (Laemmli sample buffer) followed by boiling for 5 min. Equal amount of the extracts were subjected to Western blot analysis to determine the steady-state levels of proteins using the indicated antibodies. Protein extracts were resolved by SDS-PAGE and transferred to Hybond P membranes (Amersham Bioscience Inc., USA). After blocking with 5% skim milk in 0.1% Tween 20/PBS, the membranes were incubated with primary antibodies in 5% skim milk in 0.1% Tween 20/PBS for 2 hrs at room temperature or overnight at 4° C. After several washes with 0.1% Tween 20/PBS, the membranes were incubated with the corresponding secondary antibodies conjugated with HRP in 5% skim milk in 0.1% Tween 20/PBS for 2 hrs at room temperature. Following three additional washes with 0.1% Tween 20/PBS, signals were detected by using the Immobilon Western Chemiluminescent HRP Substrate (Millipore Inc., USA; cat #WBKLSO100) according to the manufacturer's protocol. The antibodies used included ATXN2 mAb [(1:3000), BD Biosciences Inc.; cat #611378], rabbit anti-Staufen antibody (Novus biologicals Inc., NBP1-33202), SQSTM1/p62 antibody (Cell signaling, #5114), LC3B Antibody (Novus biologicals Inc., NB100-2220), mTOR antibody (Cell signaling, #2972), Phospho-mTOR (Ser2448) antibody (Cell signaling #2971), β-Actin mAb conjugated with HRP [(1:10,000), Sigma Inc.; cat #A3858]. Secondary antibodies were horse anti-mouse IgG-HRP antibody (Vector laboratories, PI-2000), and goat anti-rabbit IgG-HRP antibody (Vector laboratories, PI-1000).
(§3) For over-expression of recombinant proteins, SH-SY5Y cells were seeded on 100 mm or 6 well dishes and incubated overnight. The cells were then transfected with plasmid DNAs and harvested 48 hrs post-transfection and processed as two aliquots for protein and RNA analyses. For siRNA experiments, cells were transfected with siRNAs using lipofectamine 2000, and lymphoblastoid B cells (1×10^6) were electroporated with siRNAs using the Neon transfection system (Invitrogen Inc., USA) according to the manufacturer's protocol and seeded on 6 well plates.
(§4) Preparation of protein lysates and western blot analyses. […] Signals were detected by using the Immobilon Western Chemiluminescent HRP Substrate (Millipore Inc., USA; cat #WBKLSO100) according to the manufacturer's protocol. The intensity of proteins was determined by using the ImageJ software analyses system and the relative protein abundances were expressed as ratios to β-actin.

[2] = test system: autophagic pathway proteins (mTOR, P-mTOR, p62, LC3-II); assay: Western blot of autophagic pathway proteins in SH-SY5Y and ATXN2-Q22/58 knock-in cells
Method: as §1
as §2, with “The antibodies used included ATXN2 mAb [(1:3000), BD Biosciences Inc.; cat #611378], rabbit anti-Staufen antibody (Novus biologicals Inc., NBP1-33202), SQSTM1/p62 antibody (Cell signaling, #5114), LC3B Antibody (Novus biologicals Inc., NB100-2220), mTOR antibody (Cell signaling, #2972), Phospho-mTOR (Ser2448) antibody (Cell signaling #2971), β-Actin mAb conjugated with HRP [(1:10,000), Sigma Inc.; cat #A3858].” left out
as §3
Preparation of protein lysates and western blot analyses. Cellular extracts were prepared by a single-step lysis method. […] Equal amounts of the extracts were used for western blot analyses. […] Only supernatants were used for western blotting. Protein extracts were resolved by SDS-PAGE and transferred to Hybond P membranes (Amersham Bioscience Inc., USA). After blocking with 5% skim milk in 0.1% Tween 20/PBS, the membranes were processed for immunostaining using corresponding primary and secondary antibodies. Signals were detected by using the Immobilon Western Chemiluminescent HRP Substrate (Millipore Inc., USA; cat #WBKLSO100) according to the manufacturer's protocol. The intensity of proteins was determined by using the ImageJ software analyses system and the relative protein abundances were expressed as ratios to β-actin.

[3] = test system: mTOR and phospho-mTOR; assay: Western blot of mTOR and phospho-mTOR after mTOR RNAi; settings: SH-SY5Y and ATXN2-Q22/58 KI cells, 4 days post-transfection
Text: siRNAs. The siRNAs used in this study were: All Star Negative Control siRNA (Qiagen Inc., USA; Cat #1027280), human siATXN2 [Hs_ATXN2_2 (Qiagen Inc., USA; Cat #SI00308196)], human siSTAU1: 5′-CCUAUAACUACAACAUGAGdTdT-3′ (SEQ ID NO: 3), and simTOR: 5′-GAGCCUUGUUGAUCCUUAA-3′ (SEQ ID NO: 4). Staufen1 and mTOR siRNA oligonucleotides were synthesized by Invitrogen Inc., USA. The oligonucleotides were deprotected and the complementary strands were annealed.
as §3, §4

Substance: 5′-GAGCCUUGUUGAUCCUUAA-3′ (listed as RNA, chemistry not given here; listed as Homo sapiens) [simTOR, mTOR siRNA synthesized by Invitrogen]
- Staufen1 abundance [1]: reduced Staufen1
- autophagic pathway proteins ([2]; ATXN2-Q22/58 knock-in cells, RNAi transfection): improves autophagy marker proteins
- Staufen1 and autophagic pathway protein component levels in control cells ([2]; control SH-SY5Y cells, mTOR RNAi, 4 days post-transfection): without affecting those levels
- mTOR and phospho-mTOR levels [3]: depletion
